Data taken from paper PMC5895798, “Allosteric regulation alters carrier domain translocation in pyruvate carboxylase” (Nature Communications, 2018).
Read-outs that look alike come from different tables or passages of the source.

Columns and labels:
Format in all cases: biochemical
AnPC [1] = biological target: T1, AnPC (Aspergillus nidulans, UniProt Q5B4R8); assay: shift of L-aspartate Ki in coupled assay; conditions: 0.1 mM acetyl CoA; competes with L-aspartate, no activation; pH 7.8, 25 °C
T1 construct: gene ANIA_04462; full length, N-terminal (His)9 tag, pET-17b, E. coli BL21(DE3) with BirA (biotinylated), 130 kDa subunit, tetramer
T1 sequence (Q5B4R8 1-1196): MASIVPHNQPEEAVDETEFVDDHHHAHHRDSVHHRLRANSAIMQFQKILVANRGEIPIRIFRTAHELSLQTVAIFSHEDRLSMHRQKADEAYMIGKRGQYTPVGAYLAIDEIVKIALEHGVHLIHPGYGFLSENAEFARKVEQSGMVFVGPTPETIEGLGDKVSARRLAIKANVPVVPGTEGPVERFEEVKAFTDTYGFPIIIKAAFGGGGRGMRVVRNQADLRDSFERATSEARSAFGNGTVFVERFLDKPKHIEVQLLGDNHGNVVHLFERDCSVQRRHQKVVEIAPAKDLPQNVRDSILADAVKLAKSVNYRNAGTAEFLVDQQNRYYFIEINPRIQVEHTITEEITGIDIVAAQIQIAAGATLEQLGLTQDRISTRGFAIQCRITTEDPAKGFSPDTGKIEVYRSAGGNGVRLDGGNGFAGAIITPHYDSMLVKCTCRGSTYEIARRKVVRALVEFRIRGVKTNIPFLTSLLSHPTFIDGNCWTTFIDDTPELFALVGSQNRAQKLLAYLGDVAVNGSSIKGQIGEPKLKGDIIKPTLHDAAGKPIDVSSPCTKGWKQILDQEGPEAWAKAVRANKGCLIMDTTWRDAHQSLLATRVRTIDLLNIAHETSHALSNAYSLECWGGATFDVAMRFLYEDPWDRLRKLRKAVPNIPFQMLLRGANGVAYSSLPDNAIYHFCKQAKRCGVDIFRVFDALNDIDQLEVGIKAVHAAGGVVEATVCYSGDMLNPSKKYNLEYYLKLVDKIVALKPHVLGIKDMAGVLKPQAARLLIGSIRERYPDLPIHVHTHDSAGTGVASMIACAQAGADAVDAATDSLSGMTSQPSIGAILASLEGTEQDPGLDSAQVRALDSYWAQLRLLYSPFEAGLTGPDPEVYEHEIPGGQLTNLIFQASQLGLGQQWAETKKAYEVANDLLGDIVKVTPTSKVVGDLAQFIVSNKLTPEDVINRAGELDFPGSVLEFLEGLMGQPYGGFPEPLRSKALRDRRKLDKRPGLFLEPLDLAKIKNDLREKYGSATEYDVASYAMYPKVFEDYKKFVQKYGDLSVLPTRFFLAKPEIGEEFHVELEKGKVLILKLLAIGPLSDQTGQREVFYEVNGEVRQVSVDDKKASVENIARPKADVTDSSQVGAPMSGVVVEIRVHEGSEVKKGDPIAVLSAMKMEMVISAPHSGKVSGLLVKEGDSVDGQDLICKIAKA

RePC [2] = biological target: T2, RePC (Rhizobium etli, UniProt Q2K340); assay: coupled malate dehydrogenase assay of pyruvate carboxylation, […] nm; conditions: hybrid tetramer population (hybrid A) of two co-expressed domain-inactivated mutants; no acetyl CoA; 25 mM NaHCO3, 2.5 mM MgATP, 12 mM pyruvate, pH 7.8, 25 °C; allosteric; read-out: + 0 mM acetyl coenzyme A / Ki
T2 construct: gene pyc; full length, N-terminal (His)9 tag, pET-17b, E. coli BL21(DE3) with BirA (biotinylated), 126 kDa subunit, homotetramer

AnPC [3] = biological target: T1, AnPC; assay: as above; conditions: read-out: + 0 mM acetyl coenzyme A / Ki
RePC [4] = biological target: T2, RePC; assay: as above; conditions: read-out: + 0 mM acetyl coenzyme A / Ki

| Ki (RePC [2]) | Ki (AnPC [3]) | Ki (RePC [4]) | SMILES | shift of L-aspartate Ki in coupled assay (AnPC [1]) |
| --- | --- | --- | --- | --- |
| – | – | – | CC(=O)SCCNC(=O)CCNC(=O)[C@H](O)C(C)(C)COP(=O)(O)OP(=O)(O)OC[C@H]1O[C@@H](n2cnc3c(N)ncnc32)[C@H](O)[C@@H]1OP(=O)(O)O [acetyl CoA] | This confirms that acetyl CoA does, indeed, bind to AnPC |
| 6.2 ± 0.5 mM | 2.6 ± 0.1 mM | 4.7 ± 0.7 mM | N[C@@H](CC(=O)O)C(=O)O [L-aspartate] | – |
